System: MCF7 cells
Experiment: DAPI staining (viable cells in suspension; binucleated cells)
Format: cell-based, Human
Protocol: The second chart in FIG. 10B sets forth the results. […] One possible explanation to that observed behavior is that they are becoming more quiescent. […] Such phenomenon is typical of anti-mitotic drugs.
The surviving fraction after 2 days and 5 days of growth was analyzed by FACS. MCF7 cells were either trypsinised or spun down and trypsinised and incubated with CD24 (IOTest CD24-PE, Beckman Coulter) and CD44 (APC mouse anti-human CD44, 559942, BD Pharmingen) for 15 minutes on ice. Cells were then rinsed twice in PBS, spun down, and resuspended with DAPI dye (D1306, Molecular probes) at 3 μM in PBS for 10 minutes. Samples were then analyzed by FACS (Fortessa, BD Bioscence). Only the live cell population, identified using the DAPI staining, was analyzed for CD24/CD44 expression. Data were analyzed using FlowJo software.

With `COc1cc(-n2c(S)nc3ccccc3c2=O)c(Cl)cc1Cl` [mDIVI-1, 3-(2,4-Dichloro-5-methoxyphenyl)-2-sulfanyl-4(3H)-quinazolinone] the “binucleated cells (failure of cytokinesis)” value (50 μM, data not shown) was “increase” and the “cell viability (DAPI) vs vehicle-treated cells” value (anchorage-independent conditions) was “no significant differences”.

— patent US11559527B2 (priority 2017, dated 2023)
